Assay results: ChEMBL document CHEMBL2016464, “Identification of Inhibitors of NOD1-Induced Nuclear Factor-κB Activation” (ACS Med Chem Lett, 2011)
≈ marks a conversion by molar mass, not a printed value. Calls of active or inactive are those of the source. The calls are words filed in the database; no cut-off is given here.

Assays:
[1] = biological target: T1, Nucleotide-binding oligomerization domain-containing protein 2 (Homo sapiens, UniProt Q9HC29); assay: Inhibition of NOD-2 in human MCF7 cells assessed as inhibition of MDP-induced IL8 secretion at 0.25 to 5 uM by ELISA; type: cell-based
[2] = Cytotoxicity against human Fa2N-4 cells after 24 hrs by ATP-lite assay; type: cell-based; details: read-out: LD50
[3] = Metabolic stability in human plasma assessed as compound remaining at 1 uM after 180 mins; type: ADME, cell-free; details: read-out: Stability
[4] = biological target: 5-hydroxytryptamine receptor 6 (Homo sapiens) (UniProt P50406); assay: Inhibition of 5HT6 receptor at 10 uM
[5] = cells; details: Homo sapiens, HEK-293T, 14 h
Description: Inhibition of TNFalpha-induced NFkappaB activation in HEK293T cells after 14 hrs by luciferase reporter gene assay

[6] = biological target: Receptor-type tyrosine-protein kinase FLT3 (Homo sapiens) (UniProt P36888); assay: Inhibition of CFLT3 at 10 uM relative to control
[7] = Plasma concentration in mouse at 15 mg/kg, ip at 120 mins
[8] = tested on: HEK-293T; assay: Inhibition of doxorubicin-induced NFkappaB activation at 0.25 to 25 uM in HEK293T cells by luciferase reporter gene assay; type: cell-based; details: Homo sapiens
[9] = Plasma protein binding in human at 10 uM after 4 hrs; type: ADME, cell-free; details: read-out: PPB (converted)
[10] = tested on: HEK-293T; assay: Inhibition of PMA/ionomycin-induced NFkappaB activation at 0.25 to 25 uM in HEK293T cells by luciferase reporter gene assay; type: cell-based; details: Homo sapiens
[11] = tested on: HEK-293T; assay: Cytotoxicity against HEK293T cells at 20 uM by alamar blue assay; type: cell-based; details: human
[12] = Metabolic stability in mouse plasma assessed as compound remaining at 1 uM after 180 mins; type: ADME, cell-free; details: read-out: Stability
[13] = Plasma protein binding in human at 1 uM after 4 hrs; type: ADME, cell-free; details: read-out: PPB (converted)
[14] = Metabolic stability in mouse liver microsomes assessed as compound remaining at 1 uM preincubated for 10 mins measured after 60 mins; type: ADME, Microsome; details: read-out: Stability
[15] = biological target: T2, Aurora kinase C (Homo sapiens) (UniProt Q9UQB9); assay: Inhibition of AURKC at 10 uM relative to control
T2 sequence (whole entry): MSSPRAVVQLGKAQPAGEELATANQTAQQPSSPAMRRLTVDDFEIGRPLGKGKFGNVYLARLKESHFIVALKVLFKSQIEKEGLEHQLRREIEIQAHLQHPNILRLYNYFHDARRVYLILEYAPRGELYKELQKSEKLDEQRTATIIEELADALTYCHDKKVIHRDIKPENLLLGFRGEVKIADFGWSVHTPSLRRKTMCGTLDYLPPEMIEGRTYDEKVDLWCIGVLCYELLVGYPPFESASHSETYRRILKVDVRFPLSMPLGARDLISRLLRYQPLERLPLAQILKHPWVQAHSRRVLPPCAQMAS

[16] = biological target: T3, Aurora kinase A (Homo sapiens) (UniProt O14965); assay: Inhibition of AURKA at 10 uM relative to control
T3 sequence (whole entry): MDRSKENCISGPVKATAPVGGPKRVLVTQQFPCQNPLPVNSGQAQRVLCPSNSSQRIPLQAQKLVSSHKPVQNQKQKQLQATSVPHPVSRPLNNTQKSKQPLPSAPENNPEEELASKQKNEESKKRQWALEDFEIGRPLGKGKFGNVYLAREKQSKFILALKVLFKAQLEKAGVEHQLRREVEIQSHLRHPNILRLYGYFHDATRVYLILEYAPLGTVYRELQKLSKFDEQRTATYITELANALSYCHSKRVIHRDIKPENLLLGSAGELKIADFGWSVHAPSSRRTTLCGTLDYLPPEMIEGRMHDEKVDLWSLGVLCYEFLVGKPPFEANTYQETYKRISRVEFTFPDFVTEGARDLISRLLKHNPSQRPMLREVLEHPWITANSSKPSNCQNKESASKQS

[17] = Plasma concentration in mouse at 30 mg/kg, ip at 120 mins
[18] = Cytotoxicity against human NCI60 cells; type: cell-based
[19] = tested on: MCF7; assay: Inhibition of TNFalpha-induced IL8 secretion in human MCF7 cells at 0.25 to 5 uM by ELISA; type: functional, cell-based
[20] = biological target: Aurora kinase B (Homo sapiens) (UniProt Q96GD4); assay: Inhibition of AURKB at 10 uM relative to control
[21] = biological target: Histamine H1 receptor (Homo sapiens) (UniProt P35367); assay: Inhibition of H1 histamine receptor at 10 uM
[22] = Plasma concentration in mouse at 15 mg/kg, ip at 20 mins
[23] = biological target: 5-hydroxytryptamine receptor 2B (Homo sapiens) (UniProt P41595); assay: Inhibition of 5HT2B receptor at 10 uM
[24] = Plasma protein binding in mouse at 10 uM after 4 hrs; type: ADME, cell-free; details: read-out: PPB (converted)
[25] = biological target: Serine/threonine-protein kinase RIO2 (Homo sapiens) (UniProt Q9BVS4); assay: Inhibition of RIOK2 at 10 uM relative to control
[26] = Plasma concentration in mouse at 30 mg/kg, ip at 20 mins
[27] = biological target: T4, Nucleotide-binding oligomerization domain-containing protein 1 (Homo sapiens) (UniProt Q9Y239); details: MCF7, 0.25 to 5 uM
T4 sequence (whole entry): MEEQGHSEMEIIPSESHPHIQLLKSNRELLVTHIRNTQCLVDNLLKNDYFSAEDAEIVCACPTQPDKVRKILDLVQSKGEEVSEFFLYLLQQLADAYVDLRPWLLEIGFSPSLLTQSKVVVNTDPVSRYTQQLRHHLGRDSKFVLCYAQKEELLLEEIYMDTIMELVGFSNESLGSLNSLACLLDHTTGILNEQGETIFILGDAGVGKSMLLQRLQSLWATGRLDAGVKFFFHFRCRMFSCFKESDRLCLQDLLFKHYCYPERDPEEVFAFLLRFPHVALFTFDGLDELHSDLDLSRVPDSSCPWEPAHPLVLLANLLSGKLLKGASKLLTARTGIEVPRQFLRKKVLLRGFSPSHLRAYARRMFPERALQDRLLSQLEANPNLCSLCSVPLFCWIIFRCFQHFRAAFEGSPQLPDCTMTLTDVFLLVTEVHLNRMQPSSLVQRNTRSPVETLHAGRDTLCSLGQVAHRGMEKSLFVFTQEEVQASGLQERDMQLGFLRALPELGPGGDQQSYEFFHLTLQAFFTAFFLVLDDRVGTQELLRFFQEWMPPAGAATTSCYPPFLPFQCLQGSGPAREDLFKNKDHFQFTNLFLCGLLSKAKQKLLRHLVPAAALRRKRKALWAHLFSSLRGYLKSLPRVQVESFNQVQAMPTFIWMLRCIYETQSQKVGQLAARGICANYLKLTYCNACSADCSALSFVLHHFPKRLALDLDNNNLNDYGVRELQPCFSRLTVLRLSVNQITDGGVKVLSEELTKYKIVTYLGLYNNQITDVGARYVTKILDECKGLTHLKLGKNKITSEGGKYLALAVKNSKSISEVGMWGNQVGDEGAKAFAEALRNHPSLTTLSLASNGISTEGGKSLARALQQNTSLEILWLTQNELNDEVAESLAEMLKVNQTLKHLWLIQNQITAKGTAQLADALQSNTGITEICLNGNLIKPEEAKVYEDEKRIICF

[28] = Metabolic stability in human liver microsomes assessed as compound remaining at 1 uM preincubated for 10 mins measured after 60 mins; type: ADME, Microsome; details: read-out: Stability
[29] = Plasma protein binding in mouse at 1 uM after 4 hrs; type: ADME, cell-free; details: read-out: PPB (converted)
[30] = biological target: T5, Nucleotide-binding oligomerization domain-containing protein 1 (Homo sapiens, UniProt Q9Y239)
T5 sequence (Q9Y239 whole entry): T4 sequence (whole entry)

[31] = Solubility of the compound at pH 7.4; type: physicochemical; details: buffer
[32] = biological target: T1, Nucleotide-binding oligomerization domain-containing protein 2

T1 sequence (Q9HC29 whole entry, the tested form may be a part): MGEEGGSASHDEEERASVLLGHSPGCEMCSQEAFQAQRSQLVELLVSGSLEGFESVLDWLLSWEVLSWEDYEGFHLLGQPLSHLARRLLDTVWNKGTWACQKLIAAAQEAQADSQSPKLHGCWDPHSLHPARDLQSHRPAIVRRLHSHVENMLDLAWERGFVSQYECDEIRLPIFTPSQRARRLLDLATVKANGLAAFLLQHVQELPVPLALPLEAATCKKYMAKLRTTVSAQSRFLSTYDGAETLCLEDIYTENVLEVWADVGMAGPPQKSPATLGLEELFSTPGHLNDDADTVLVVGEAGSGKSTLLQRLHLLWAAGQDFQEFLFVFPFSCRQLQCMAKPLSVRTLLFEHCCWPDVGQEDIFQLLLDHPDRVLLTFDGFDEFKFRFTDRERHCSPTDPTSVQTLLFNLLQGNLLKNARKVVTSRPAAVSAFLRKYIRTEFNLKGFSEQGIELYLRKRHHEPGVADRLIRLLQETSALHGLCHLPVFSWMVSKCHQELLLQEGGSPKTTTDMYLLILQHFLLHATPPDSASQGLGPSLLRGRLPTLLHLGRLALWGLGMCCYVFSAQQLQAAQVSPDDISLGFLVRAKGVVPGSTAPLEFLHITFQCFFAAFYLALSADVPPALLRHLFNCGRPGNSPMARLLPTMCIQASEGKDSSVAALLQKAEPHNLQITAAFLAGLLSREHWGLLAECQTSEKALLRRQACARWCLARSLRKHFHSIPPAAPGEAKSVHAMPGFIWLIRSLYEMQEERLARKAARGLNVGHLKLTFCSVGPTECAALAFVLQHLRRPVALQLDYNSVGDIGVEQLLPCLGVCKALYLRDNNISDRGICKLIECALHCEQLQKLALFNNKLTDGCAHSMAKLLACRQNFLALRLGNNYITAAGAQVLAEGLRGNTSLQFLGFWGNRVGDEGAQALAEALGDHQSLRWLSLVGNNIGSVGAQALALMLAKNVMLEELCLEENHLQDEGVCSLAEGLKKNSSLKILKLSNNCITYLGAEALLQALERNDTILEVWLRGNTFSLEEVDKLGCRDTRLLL
Sequence of 5-hydroxytryptamine receptor 6 (Homo sapiens) (P50406 whole entry): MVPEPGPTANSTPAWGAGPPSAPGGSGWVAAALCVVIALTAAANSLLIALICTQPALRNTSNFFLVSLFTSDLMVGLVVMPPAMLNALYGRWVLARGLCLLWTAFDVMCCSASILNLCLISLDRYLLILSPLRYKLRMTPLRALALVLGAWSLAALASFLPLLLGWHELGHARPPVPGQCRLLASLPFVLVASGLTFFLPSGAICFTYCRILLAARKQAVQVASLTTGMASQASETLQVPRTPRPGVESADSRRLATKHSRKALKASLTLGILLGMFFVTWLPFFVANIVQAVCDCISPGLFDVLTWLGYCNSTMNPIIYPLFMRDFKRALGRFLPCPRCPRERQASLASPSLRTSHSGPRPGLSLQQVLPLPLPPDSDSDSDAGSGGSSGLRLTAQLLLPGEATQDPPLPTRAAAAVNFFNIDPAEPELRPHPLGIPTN
Sequence of Receptor-type tyrosine-protein kinase FLT3 (Homo sapiens) (P36888 whole entry): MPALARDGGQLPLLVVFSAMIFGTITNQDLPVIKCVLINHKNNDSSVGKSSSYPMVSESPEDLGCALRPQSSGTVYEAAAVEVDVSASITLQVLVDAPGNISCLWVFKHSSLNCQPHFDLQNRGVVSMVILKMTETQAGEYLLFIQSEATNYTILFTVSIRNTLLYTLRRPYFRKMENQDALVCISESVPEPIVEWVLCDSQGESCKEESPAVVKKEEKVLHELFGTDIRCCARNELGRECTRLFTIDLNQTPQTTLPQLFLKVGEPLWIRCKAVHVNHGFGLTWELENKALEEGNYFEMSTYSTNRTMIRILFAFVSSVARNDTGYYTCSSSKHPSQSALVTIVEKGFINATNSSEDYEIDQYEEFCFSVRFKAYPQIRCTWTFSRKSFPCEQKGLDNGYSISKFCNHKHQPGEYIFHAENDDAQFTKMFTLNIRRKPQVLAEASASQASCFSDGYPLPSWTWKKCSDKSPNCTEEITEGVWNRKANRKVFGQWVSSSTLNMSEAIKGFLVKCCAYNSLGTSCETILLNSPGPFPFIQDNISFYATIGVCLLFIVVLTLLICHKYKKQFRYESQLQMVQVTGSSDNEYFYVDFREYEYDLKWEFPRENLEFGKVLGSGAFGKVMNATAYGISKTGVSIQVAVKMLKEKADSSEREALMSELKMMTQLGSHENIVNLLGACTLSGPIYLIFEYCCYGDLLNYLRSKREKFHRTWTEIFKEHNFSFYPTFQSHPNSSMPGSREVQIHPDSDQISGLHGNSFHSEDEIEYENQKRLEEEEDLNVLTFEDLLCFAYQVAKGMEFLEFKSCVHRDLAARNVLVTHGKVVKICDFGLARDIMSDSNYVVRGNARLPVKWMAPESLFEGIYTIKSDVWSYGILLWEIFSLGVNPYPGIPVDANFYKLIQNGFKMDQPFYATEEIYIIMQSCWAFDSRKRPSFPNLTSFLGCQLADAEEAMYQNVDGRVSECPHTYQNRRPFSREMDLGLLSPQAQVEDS
Sequence of Aurora kinase B (Homo sapiens) (Q96GD4 whole entry): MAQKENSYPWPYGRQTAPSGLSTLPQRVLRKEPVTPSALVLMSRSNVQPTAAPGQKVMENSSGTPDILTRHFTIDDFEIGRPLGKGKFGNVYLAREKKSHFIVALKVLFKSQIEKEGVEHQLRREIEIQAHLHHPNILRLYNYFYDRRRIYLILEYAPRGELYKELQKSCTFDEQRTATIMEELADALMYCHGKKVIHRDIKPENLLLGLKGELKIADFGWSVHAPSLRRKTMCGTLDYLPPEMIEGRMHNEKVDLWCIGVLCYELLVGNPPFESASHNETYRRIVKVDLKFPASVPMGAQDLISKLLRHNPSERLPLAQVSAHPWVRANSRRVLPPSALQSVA
Sequence of Histamine H1 receptor (Homo sapiens) (P35367 whole entry): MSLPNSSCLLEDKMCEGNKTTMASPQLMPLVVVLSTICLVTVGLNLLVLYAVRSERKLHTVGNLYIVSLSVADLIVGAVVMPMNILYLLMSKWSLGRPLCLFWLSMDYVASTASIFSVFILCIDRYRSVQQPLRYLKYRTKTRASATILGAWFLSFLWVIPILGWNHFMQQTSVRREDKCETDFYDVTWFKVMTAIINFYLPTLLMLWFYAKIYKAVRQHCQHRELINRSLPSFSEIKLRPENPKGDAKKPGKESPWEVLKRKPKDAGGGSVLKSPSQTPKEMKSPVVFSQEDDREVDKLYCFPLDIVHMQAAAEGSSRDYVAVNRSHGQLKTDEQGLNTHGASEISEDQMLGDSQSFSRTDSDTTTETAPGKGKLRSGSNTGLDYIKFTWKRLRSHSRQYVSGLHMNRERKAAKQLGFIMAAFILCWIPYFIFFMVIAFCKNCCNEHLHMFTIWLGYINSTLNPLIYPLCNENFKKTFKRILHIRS
Sequence of Serine/threonine-protein kinase RIO2 (Homo sapiens) (Q9BVS4 whole entry, looked up): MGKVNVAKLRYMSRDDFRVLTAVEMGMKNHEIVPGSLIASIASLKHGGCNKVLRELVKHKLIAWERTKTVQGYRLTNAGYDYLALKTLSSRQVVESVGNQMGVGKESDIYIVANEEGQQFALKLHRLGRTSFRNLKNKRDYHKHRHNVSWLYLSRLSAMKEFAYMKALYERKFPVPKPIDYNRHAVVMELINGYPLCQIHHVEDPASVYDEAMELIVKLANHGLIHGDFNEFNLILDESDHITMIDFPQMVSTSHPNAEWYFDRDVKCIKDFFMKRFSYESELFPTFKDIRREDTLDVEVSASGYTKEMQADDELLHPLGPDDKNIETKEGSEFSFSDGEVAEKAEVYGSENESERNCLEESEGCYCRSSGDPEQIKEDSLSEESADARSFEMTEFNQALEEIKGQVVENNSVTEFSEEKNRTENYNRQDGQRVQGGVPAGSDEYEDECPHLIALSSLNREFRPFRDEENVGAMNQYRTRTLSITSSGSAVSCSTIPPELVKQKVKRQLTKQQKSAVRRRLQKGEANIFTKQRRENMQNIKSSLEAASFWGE
Sequence of 5-hydroxytryptamine receptor 2B (Homo sapiens) (P41595 whole entry): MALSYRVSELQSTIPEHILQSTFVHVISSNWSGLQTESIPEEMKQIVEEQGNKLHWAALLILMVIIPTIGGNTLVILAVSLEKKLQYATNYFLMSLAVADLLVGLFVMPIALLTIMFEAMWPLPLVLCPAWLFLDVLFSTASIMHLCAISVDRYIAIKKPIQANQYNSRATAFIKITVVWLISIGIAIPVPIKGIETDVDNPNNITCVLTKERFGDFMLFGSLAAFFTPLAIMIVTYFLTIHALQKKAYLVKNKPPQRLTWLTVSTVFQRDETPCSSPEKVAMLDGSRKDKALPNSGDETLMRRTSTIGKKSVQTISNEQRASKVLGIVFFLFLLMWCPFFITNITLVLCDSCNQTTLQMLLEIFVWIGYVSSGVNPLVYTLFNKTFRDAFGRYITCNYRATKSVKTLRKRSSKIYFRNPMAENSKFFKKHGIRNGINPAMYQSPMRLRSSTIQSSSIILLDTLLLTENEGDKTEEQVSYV

SMILES: Cc1ccc(S(=O)(=O)n2c(N)nc3ccccc32)cc1
- inhibition [1]: inactive
- CC50 at 24 h [2]: > 50 µM
- remaining at 3 h, 1 µM [3]: 100%
- inhibition [4]: 92%
- IC50 [5]: > 20 µM
- inhibition [6]: 27%
- concentration at 2 h [7]: < 500 ng/mL
- inhibition [8]: inactive
- fraction unbound at 4 h, 10 µM [9]: 0.023
- inhibition [10]: inactive
- Activity [11]: 0%
- remaining at 3 h, 1 µM [12]: 100%
- fraction unbound at 4 h, 1 µM [13]: 0.025
- remaining at 1 h, 1 µM [14]: 0.8%
- inhibition [15]: 23%
- inhibition [16]: inactive
- concentration at 2 h [17]: < 500 ng/mL
- Activity [18]: Non-toxic
- inhibition [19]: inactive
- inhibition [20]: 21%
- inhibition [21]: 89%
- concentration at 20 min [22]: 1200 ng/mL
- inhibition [23]: 69%
- fraction unbound at 4 h, 10 µM [24]: 0.045
- inhibition [25]: 6%
- concentration at 20 min [26]: 5500 ng/mL
- inhibition [27]: Active
- remaining at 1 h, 1 µM [28]: 41.8%
- fraction unbound at 4 h, 1 µM [29]: 0.05

SMILES: O=C(C1CC1)N1CCc2cc(S(=O)(=O)N3CCN(c4ccc(Cl)cc4)CC3)ccc21
- IC50 [5]: > 20 µM
- IC50 [30]: > 20 µM
- solubility [31]: 0.1 µg/mL (≈ 0.224 µM)
- Activity [11]: 0%
- IC50 [32]: > 20 µM

SMILES: CC(=O)c1ccc(N2CCN(S(=O)(=O)c3ccc4c(c3)CC(C)N4C(=O)C3CC3)CC2)cc1 (racemic)
- IC50 [5]: > 20 µM
- IC50 [30]: 10.3 µM
- solubility [31]: 0.1 µg/mL (≈ 0.214 µM)
- Activity [11]: 0%
- IC50 [32]: 7.9 µM

SMILES: CCC(=O)N1CCc2cc(S(=O)(=O)N3CCN(c4ccc(C(C)=O)cc4)CC3)ccc21
- IC50 [5]: > 20 µM
- IC50 [30]: > 20 µM
- solubility [31]: 0.1 µg/mL (≈ 0.226 µM)
- Activity [11]: 0%
- IC50 [32]: > 20 µM

SMILES: CCC(=O)N1CCc2cc(S(=O)(=O)N3CCN(c4ccc(Cl)cc4)CC3)ccc21
- IC50 [5]: > 20 µM
- IC50 [30]: > 20 µM
- solubility [31]: 0.1 µg/mL (≈ 0.23 µM)
- Activity [11]: 0%
- IC50 [32]: > 20 µM

SMILES: CC1Cc2cc(S(=O)(=O)N3CCN(c4ccccc4)CC3)ccc2N1C(=O)C1CC1 (racemic)
- IC50 [5]: 15.3 µM
- IC50 [30]: > 20 µM
- solubility [31]: 0.1 µg/mL (≈ 0.235 µM)
- Activity [11]: 0%
- IC50 [32]: 17.4 µM

SMILES: Cc1ccc(N2CCN(S(=O)(=O)c3ccc4c(c3)CC(C)N4C(=O)C3CC3)CC2)cc1 (racemic)
- IC50 [5]: > 20 µM
- IC50 [30]: > 20 µM
- solubility [31]: 0.1 µg/mL (≈ 0.227 µM)
- Activity [11]: 0%
- IC50 [32]: > 20 µM

SMILES: O=C(Nc1ccc(CN2CCc3ccccc3C2)cc1)c1ccc(Cl)cc1
- IC50 [5]: > 20 µM
- IC50 [30]: > 20 µM
- Activity [11]: 0%
- IC50 [32]: > 20 µM

SMILES: O=C(Nc1ccc(S(=O)(=O)O)cc1)c1ccc(CN2CCc3ccccc3C2)cc1
- IC50 [5]: > 20 µM
- IC50 [30]: > 20 µM
- Activity [11]: 0%
- IC50 [32]: > 20 µM
